{
  "source": "paper PMC7413516",
  "about": "“Antidepressant-like activity and safety profile evaluation of 1H-imidazo[2,1-f]purine-2,4(3H,8H)-dione derivatives as 5-HT1A receptor partial agonists” (PLoS ONE, 2020)",
  "key": {"normotensive rats": {"tested_on": "normotensive rats", "test": "Blood pressure measurement in normotensive anesthetized rats", "type": "in vivo, Wistar rats", "settings": "for DBP Mean / SBP Mean: group mean; for DBP / SBP: individual rat", "description": "Male Wistar normotensive rats were anesthetized with thiopental (50–75 mg/kg, i.p.). The right carotid artery was cannulated with a polyethylene tube filled with heparin in saline to facilitate pressure measurement using the Datamax apparatus (Columbus Instruments, Columbus, Ohio, USA). The studied compounds were administered after a 15-min stabilization period."}, "[1]": {"tested_on": "adrenergic α1 receptors (α1R)", "test": "Pressor response to methoxamine in anesthetized normotensive rats (adrenolytic activity)", "type": "in vivo, Wistar rats", "settings": "10 mg/kg", "description": "In a separate series of experiments on anesthetized normotensive rats, the effect of studied compounds on the pressor response to methoxamine (Sigma Aldrich) (150 μg/kg) was investigated. Pressor responses to methoxamine injected intravenously were measured before and 30 min after the administration of the tested compound. The amplitudes of the pressure values were measured in 4 independent experiments."}, "[2]": {"molecular_target": "T1, muscarinic M3 receptor (M3R) (Cavia porcellus, UniProt H0W1Z3)", "T1 construct": "from tissue; host or cells: isolated guinea pig ileum", "T1 sequence (H0W1Z3 1-590)": "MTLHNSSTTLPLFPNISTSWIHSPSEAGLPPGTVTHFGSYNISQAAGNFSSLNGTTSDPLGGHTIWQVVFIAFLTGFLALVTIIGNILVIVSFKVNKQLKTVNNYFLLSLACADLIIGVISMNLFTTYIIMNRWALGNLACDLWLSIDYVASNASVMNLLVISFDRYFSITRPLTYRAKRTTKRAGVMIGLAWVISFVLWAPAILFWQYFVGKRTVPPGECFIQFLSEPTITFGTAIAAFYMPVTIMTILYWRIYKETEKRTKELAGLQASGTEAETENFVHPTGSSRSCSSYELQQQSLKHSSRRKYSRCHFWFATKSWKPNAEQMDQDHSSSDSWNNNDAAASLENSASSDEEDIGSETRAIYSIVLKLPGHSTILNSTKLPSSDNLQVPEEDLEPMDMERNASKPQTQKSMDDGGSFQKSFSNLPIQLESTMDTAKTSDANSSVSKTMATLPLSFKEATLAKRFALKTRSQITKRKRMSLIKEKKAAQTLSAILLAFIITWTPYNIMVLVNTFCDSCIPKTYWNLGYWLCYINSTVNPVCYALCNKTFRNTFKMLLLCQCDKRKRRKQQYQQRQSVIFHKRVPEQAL", "test": "Smooth muscle relaxant assay: carbachol-induced contraction of isolated guinea pig ileum", "settings": "isolated guinea pig small intestine, carbachol 100 μM", "description": "(§1) The experiment was carried out according to the method described previously. Male guinea pigs were sacrificed by cervical dislocation. The ileum was rapidly removed, rinsed, and cut into segments of 1.5–2.0 cm length. The tissues were mounted on a jacketed 20 mL organ bath (Tissue Organ Bath System; 750 TOBS, DMT, Denmark) filled with Krebs’s solution (NaCl 120 mM, KCl 5.6 mM, MgCl2 2.2 mM, CaCl2 2.4 mM, NaHCO3 19 mM, glucose 10 mM). The bath was aerated with 95 % O2/5 % CO2 and heated at 37°C. During the 60-min incubation period, the organ was rinsed 4 times with fresh Krebs’s buffer, and the tissues were also pre-stimulated by 60 mM KCl solution. The submaximal contraction induced by histamine (Sigma Aldrich) (2 μM) and carbachol (Sigma Aldrich) (100 μM) was evaluated in the presence and absence of the tested compounds. Amplitudes of contraction values were measured in 4 independent experiments."}, "[3]": {"molecular_target": "T2, histaminic H1 receptor (H1R) (Cavia porcellus, UniProt P31389)", "T2 construct": "from tissue; host or cells: isolated guinea pig ileum", "T2 sequence (P31389 whole entry)": "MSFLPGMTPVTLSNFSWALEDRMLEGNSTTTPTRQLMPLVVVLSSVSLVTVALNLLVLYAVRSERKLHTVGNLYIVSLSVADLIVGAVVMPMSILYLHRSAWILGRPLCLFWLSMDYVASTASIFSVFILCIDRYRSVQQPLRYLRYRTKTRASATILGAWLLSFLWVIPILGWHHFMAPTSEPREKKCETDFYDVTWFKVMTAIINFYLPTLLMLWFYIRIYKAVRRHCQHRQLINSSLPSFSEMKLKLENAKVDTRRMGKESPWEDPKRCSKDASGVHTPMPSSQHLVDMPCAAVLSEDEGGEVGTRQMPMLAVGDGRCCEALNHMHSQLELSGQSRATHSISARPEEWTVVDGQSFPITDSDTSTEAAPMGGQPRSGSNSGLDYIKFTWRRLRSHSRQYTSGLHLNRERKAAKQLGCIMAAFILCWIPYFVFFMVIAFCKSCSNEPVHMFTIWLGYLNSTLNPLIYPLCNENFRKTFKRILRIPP", "test": "Smooth muscle relaxant assay: histamine-induced contraction of isolated guinea pig ileum", "settings": "isolated guinea pig small intestine, histamine 2 μM", "description": "as §1"}, "[4]": {"molecular_target": "serotonergic 5-HT1A receptor (5-HT1AR)", "set-up": "method as in PMID 27353547", "settings": "ref [8]; cited from earlier work"}, "[5]": {"molecular_target": "serotonergic 5-HT7 receptor (5-HT7R)", "set-up": "method as in PMID 27353547", "settings": "ref [8]; cited from earlier work"}, "PDE4B": {"tested_on": "PDE4B", "set-up": "method as in PMID 27353547", "settings": "in vitro, bioluminescent detection system; ref [8]; cited from earlier work"}, "human 5-HT1AR": {"molecular_target": "T3, human 5-HT1AR (Homo sapiens, UniProt P08908)", "T3 sequence (P08908 1-422)": "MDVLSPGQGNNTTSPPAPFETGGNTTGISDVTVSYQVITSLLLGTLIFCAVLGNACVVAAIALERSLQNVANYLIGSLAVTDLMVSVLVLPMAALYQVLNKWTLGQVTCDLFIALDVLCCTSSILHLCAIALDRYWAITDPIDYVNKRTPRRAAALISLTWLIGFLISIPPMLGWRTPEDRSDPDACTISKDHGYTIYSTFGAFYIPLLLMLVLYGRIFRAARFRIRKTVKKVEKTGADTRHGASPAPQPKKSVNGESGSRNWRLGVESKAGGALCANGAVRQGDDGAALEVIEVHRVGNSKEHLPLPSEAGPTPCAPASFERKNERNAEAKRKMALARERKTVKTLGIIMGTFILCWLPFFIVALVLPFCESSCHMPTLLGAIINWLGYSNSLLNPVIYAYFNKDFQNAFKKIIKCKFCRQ", "test": "β-Arrestin recruitment (Tango LiveBLAzer, HTR1A-bla U2OS cells)", "protocol": "Cells were cultured according to manufacturer’s instruction. […] This parental cell line stably expresses a beta-arrestin/TEV protease fusion protein and the beta-lactamase reporter gene under the control of a UAS response element. The Tango™ HTR1A-bla U2OS cells have been functionally validated for a response to 5-CT. This cell line tested negative for mycoplasma.\nThe HTR1A-bla U2OS receptor cells containing the human 5-HT1AR linked to a TEV protease site and a Gal4-VP16 transcription factor were tested for recruitment of β-arrestin. […] The recruitment of β-arrestin were tested using the Tango LiveBLAzer assay kit according to the manufacturer’s instruction (Life Technologies). The assay plate was measured in FLUOstar Optima, a multifunction plate reader (BMG Lab Tech)."}},
  "note": "Values joined by “and” are separate entries in the source; they are usually repeats but may differ in a detail not shown here. Equal values may be shown once.",
  "data": [
    {"smiles": "Cn1c(=O)c2c(nc3n(CCCCN4CCN(c5cccc(C(F)(F)F)c5)CC4)ccn23)n(C)c1=O", "note": "[AZ-861, 1,3-dimethyl-8-(4-(4-(3-(trifluoromethyl)phenyl)piperazin-1-yl)butyl)-1H-imidazo[2,1-f]purine-2,4(3H,8H)-dione]", "values": [
      {"measurement": "effect on arterial pressure", "setting": "normotensive rats; 10 mg/kg", "value": "did not significantly affect the arterial pressure"},
      {"measurement": "DBP Mean", "setting": "normotensive rats; time 0 min", "value": 86.8, "unit": "mmHg"},
      {"measurement": "SBP Mean", "setting": "normotensive rats; time 0 min", "value": 124.2, "unit": "mmHg"},
      {"measurement": "DBP", "setting": "normotensive rats; time 0 min", "value": "74 mmHg and 91 mmHg and 79 mmHg and 94 mmHg and 89 mmHg"},
      {"measurement": "SBP", "setting": "normotensive rats; time 0 min", "value": "113 mmHg and 124 mmHg and 105 mmHg and 134 mmHg and 135 mmHg"},
      {"measurement": "DBP Mean", "setting": "normotensive rats; time 5 min", "value": 87.2, "unit": "mmHg"},
      {"measurement": "SBP Mean", "setting": "normotensive rats; time 5 min", "value": 122.2, "unit": "mmHg"},
      {"measurement": "DBP", "setting": "normotensive rats; time 5 min", "value": "91 mmHg and 76 mmHg and 84 mmHg and 93 mmHg and 98 mmHg and 81 mmHg"},
      {"measurement": "SBP", "setting": "normotensive rats; time 5 min", "value": "122 mmHg and 101 mmHg and 119 mmHg and 139 mmHg and 138 mmHg and 114 mmHg"},
      {"measurement": "DBP Mean", "setting": "normotensive rats; time 10 min", "value": 86.8, "unit": "mmHg"},
      {"measurement": "SBP Mean", "setting": "normotensive rats; time 10 min", "value": 122.3, "unit": "mmHg"},
      {"measurement": "DBP", "setting": "normotensive rats; time 10 min", "value": "90 mmHg and 76 mmHg and 87 mmHg and 98 mmHg and 80 mmHg"},
      {"measurement": "SBP", "setting": "normotensive rats; time 10 min", "value": "120 mmHg and 102 mmHg and 124 mmHg and 139 mmHg and 136 mmHg and 113 mmHg"},
      {"measurement": "DBP Mean", "setting": "normotensive rats; time 15 min", "value": 86.2, "unit": "mmHg"},
      {"measurement": "SBP Mean", "setting": "normotensive rats; time 15 min", "value": 123.3, "unit": "mmHg"},
      {"measurement": "DBP", "setting": "normotensive rats; time 15 min", "value": "90 mmHg and 77 mmHg and 89 mmHg and 94 mmHg"},
      {"measurement": "SBP", "setting": "normotensive rats; time 15 min", "value": "120 mmHg and 103 mmHg and 137 mmHg and 138 mmHg and 131 mmHg and 111 mmHg"},
      {"measurement": "DBP Mean", "setting": "normotensive rats; time 20 min", "value": 85.8, "unit": "mmHg"},
      {"measurement": "SBP Mean", "setting": "normotensive rats; time 20 min", "value": 121.8, "unit": "mmHg"},
      {"measurement": "DBP", "setting": "normotensive rats; time 20 min", "value": "89 mmHg and 76 mmHg and 91 mmHg and 87 mmHg and 94 mmHg"},
      {"measurement": "SBP", "setting": "normotensive rats; time 20 min", "value": "118 mmHg and 100 mmHg and 138 mmHg and 139 mmHg and 128 mmHg and 109 mmHg"},
      {"measurement": "DBP Mean", "setting": "normotensive rats; time 30 min", "value": 86.5, "unit": "mmHg"},
      {"measurement": "SBP Mean", "setting": "normotensive rats; time 30 min", "value": 124.2, "unit": "mmHg"},
      {"measurement": "DBP", "setting": "normotensive rats; time 30 min", "value": "88 mmHg and 77 mmHg and 93 mmHg and 89 mmHg and 94 mmHg and 74 mmHg"},
      {"measurement": "SBP", "setting": "normotensive rats; time 30 min", "value": "119 mmHg and 101 mmHg and 136 mmHg and 139 mmHg and 128 mmHg and 108 mmHg"},
      {"measurement": "DBP Mean", "setting": "normotensive rats; time 40 min", "value": 85.5, "unit": "mmHg"},
      {"measurement": "SBP Mean", "setting": "normotensive rats; time 40 min", "value": 122.0, "unit": "mmHg"},
      {"measurement": "DBP", "setting": "normotensive rats; time 40 min", "value": "88 mmHg and 76 mmHg and 92 mmHg and 95 mmHg and 75 mmHg"},
      {"measurement": "SBP", "setting": "normotensive rats; time 40 min", "value": "122 mmHg and 106 mmHg and 134 mmHg and 136 mmHg and 128 mmHg and 108 mmHg"},
      {"measurement": "DBP Mean", "setting": "normotensive rats; time 50 min", "value": 85.7, "unit": "mmHg"},
      {"measurement": "SBP Mean", "setting": "normotensive rats; time 50 min", "value": 122.3, "unit": "mmHg"},
      {"measurement": "DBP", "setting": "normotensive rats; time 50 min", "value": "96 mmHg and 81 mmHg and 89 mmHg and 84 mmHg and 93 mmHg and 77 mmHg"},
      {"measurement": "SBP", "setting": "normotensive rats; time 50 min", "value": "134 mmHg and 110 mmHg and 130 mmHg and 135 mmHg and 125 mmHg"},
      {"measurement": "DBP Mean", "setting": "normotensive rats; time 60 min", "value": 86.7, "unit": "mmHg"},
      {"measurement": "SBP Mean", "setting": "normotensive rats; time 60 min", "value": 124.0, "unit": "mmHg"},
      {"measurement": "DBP", "setting": "normotensive rats; time 60 min", "value": "98 mmHg and 83 mmHg and 88 mmHg and 82 mmHg and 93 mmHg and 75 mmHg"},
      {"measurement": "SBP", "setting": "normotensive rats; time 60 min", "value": "135 mmHg and 112 mmHg and 129 mmHg and 126 mmHg and 108 mmHg"},
      {"measurement": "DBP Mean", "setting": "normotensive rats; time 70 min", "value": 86.3, "unit": "mmHg"},
      {"measurement": "SBP Mean", "setting": "normotensive rats; time 70 min", "value": 123.7, "unit": "mmHg"},
      {"measurement": "DBP", "setting": "normotensive rats; time 70 min", "value": "96 mmHg and 86 mmHg and 80 mmHg and 93 mmHg and 77 mmHg"},
      {"measurement": "SBP", "setting": "normotensive rats; time 70 min", "value": "134 mmHg and 115 mmHg and 127 mmHg and 128 mmHg and 125 mmHg and 113 mmHg"},
      {"measurement": "DBP Mean", "setting": "normotensive rats; time 80 min", "value": 86.8, "unit": "mmHg"},
      {"measurement": "SBP Mean", "setting": "normotensive rats; time 80 min", "value": 124.5, "unit": "mmHg"},
      {"measurement": "DBP", "setting": "normotensive rats; time 80 min", "value": "97 mmHg and 87 mmHg and 86 mmHg and 82 mmHg and 93 mmHg and 76 mmHg"},
      {"measurement": "SBP", "setting": "normotensive rats; time 80 min", "value": "134 mmHg and 115 mmHg and 126 mmHg and 131 mmHg and 125 mmHg and 116 mmHg"},
      {"measurement": "reversal of the effect of methoxamine", "setting": "[1]", "value": "approximately 40%"},
      {"measurement": "mean reduction of blood pressure vs. methoxamine alone", "setting": "[1]; 30 min prior to methoxamine 150 μg/kg", "value": 40.45, "unit": "mmHg"},
      {"measurement": "inhibition at 1 µM", "setting": "[2]", "value": 0.17, "unit": "%"},
      {"measurement": "inhibition at 1 µM", "setting": "[3]", "value": 99.8, "unit": "%"},
      {"measurement": "Ki", "setting": "[4]", "value": 0.2, "unit": "nM"},
      {"measurement": "Ki", "setting": "[5]", "value": 136, "unit": "nM"},
      {"measurement": "PDE4B inhibitory activity", "setting": "PDE4B", "value": "did not induce PDE4B and PDE10A inhibitory activity"},
      {"measurement": "EC50", "setting": "human 5-HT1AR", "value": 0.372, "unit": "nM"},
      {"measurement": "Emax", "setting": "human 5-HT1AR; U2OS, read-out: Emax (%) ± SEM, agonist mode", "value": "95 ± 1.7", "unit": "%"},
      {"measurement": "increased potency as compared to 5-HT", "setting": "human 5-HT1AR; β-arrestin recruitment", "value": 1000, "unit": "fold"}
    ]}
  ]
}
